Four molecules from patent US20240262803A1, “COMPOUNDS, COMPOSITIONS AND METHODS OF TREATING DISORDERS” (Chungdu Anticancer Bioscience Ltd, priority 2021, published 2024) can be followed below.

Molecules are shown by their SMILES. “Also recorded” adds a separate entry of the source.

The test system of one assay is RPEMYC^H2B-GFP cells. Description: Mechanism-informed phenotypic screening assay (mitotic arrest, polyploidy; GE IN-Cell Analyzer 2000). As to conditions: 20 nM to 20 μM, 24, 48 or 72 hours, read-out: Min. Effective conc. for polyploidy (≥5%). The class given is cell-based. The procedure, abridged:
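RPEMYC^H2B-GFP cells expressing Histone 2B-EGFP were treated with compounds at 20 nM to 20 μM. Mitotic arrest and DNA content were imaged at 24, 48 or 72 h. Minimal effective concentrations eliciting polyploidy are given as letter bins.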

Assay [1] concerns cervical cancer cell line Hela. Description: Soft agar colony formation assay, Hela. As to conditions: 3D culture, FIG. 2. Format: cell-based, human. The method, then: (§1) Six lung cancer cell lines (NCI-H23, NCI-H460, NCI-H596, NCI-H2170, Calu-6 and A549), two colon cancer cell lines (HCT116 and SW460), one breast cancer cell line MDA-MB-231, one gastric cancer cell line NCI-N87, one prostate cancer cell line DU145, one cervical cancer cell line Hela, and one glioblastoma cell line T98G were obtained from ATCC. The T2 HCC cell line was derived from a mouse liver cancer model initiated by a transgene of MYC (Reference). All cell lines were cultured in DMEM (Gibco, Cleveland, TN, USA) supplemented with 5% fetal bovine serum (Gibco), penicillin (100 U/mL)-streptomycin (100 μg/mL) (Gibco, Cat. No. 15140-122), 2 mM L-glutamine (Gibco, 200 mM solution, Cat. No. 25030081), and 1 mM sodium pyruvate (Gibco, 100 mM solution, Cat. No. 11360070) at 37° C. in a humidified incubator that was maintained at 5% CO2.
Measuring the ability of cells to grow in soft agar has been popularly believed as the gold standard assay for cellular transformation in vitro. In the Soft Agar Assay, cells grow from single cells to cell colonies in a semi-solid agar solution that keeps them away from the solid surface and allows growth in an anchorage-independent way.
The anchorage-independent growth of cells is one of the hallmarks of cancer cells. […] Cell culture medium was changed once every two days until colonies were ready to photograph. […]

The subject of assay [2] is glioblastoma cell line T98G. Description: Minimal effective concentration that elicits polyploidy, T98G. The class given is cell-based, human.
Assay [3] relates to cervical cancer cell line Hela. The experiment in a line: MTT assay of cellular proliferation, Hela. Format: cell-based. As to conditions: Homo sapiens, read-out: EC50: Concentration that inhibits 50% of proliferation. The procedure, abridged: (§2)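 EC50 values come from optical density at 570 nm of solubilized MTT formazan, added for 3˜4 h after compound exposure. Cells in DMEM with 5% FBS were treated at 1 nM to 10 μM once 20˜30% confluent.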
(In general: Tetrazolium assays rely on reduction of a dye to a coloured formazan, in cell work by metabolically active cells.)

Assay [4] deals with liver cancer cell line T2 HCC. Description: MTT assay of cellular proliferation, T2 HCC. The class given is cell-based. As to conditions: Mus musculus, read-out: EC50: Concentration that inhibits 50% of proliferation. In short, it runs like this:
as §2

Assay [5] relates to lung cancer cell line NCI-H23. The experiment in a line: MTT assay of cellular proliferation, NCI-H23. Format: cell-based. As to conditions: Homo sapiens, read-out: EC50: Concentration that inhibits 50% of proliferation. The procedure, abridged:
as §2

Assay [6] concerns lung cancer cell line NCI-H460. The experiment in a line: Minimal effective concentration that elicits polyploidy, NCI-H460. Format: cell-based, human.
In assay [7] the test system is prostate cancer cell line DU145. Description: Minimal effective concentration that elicits polyploidy, DU145. The class given is cell-based, human.
Assay [8] concerns lung cancer cell line NCI-H596. Description: MTT assay of cellular proliferation, NCI-H596. Format: cell-based. As to conditions: Homo sapiens, read-out: EC50: Concentration that inhibits 50% of proliferation. The method, then:
as §1
(§3) The MTT assay measures cellular metabolic activity as a proxy for cell viability and involves the conversion of the water-soluble yellow dye MTT [3-(4,5-dimethylthiazol-2-yl)-2,5-diphenyltetrazolium bromide] into an insoluble purple formazan by the action of mitochondrial reductase. Formazan is then solubilized and its concentration is determined by measuring the optical density (OD) value at a wavelength of 570 nm. The value is in proportional to the number of live cells with excellent linearity up to ˜10^6 cells per well. The MTT assay was used to determine the EC50 value, the concentration of a compound that leads to 50% inhibition of cellular proliferation. Briefly, cells were split when growing to the mid-Log phase. Cells in 100 μL of culture medium were seeded into each well of 96-well microplates and cultivated for 15˜24 hours to reach a confluence of 20˜30% and were then exposed to drugs at concentrations ranging from 1 nM to 10 μM. At the endpoint, 20 μL of a MTT stock solution in DMSO (5 mg/mL) was added to each well that contains […] of DMEM. The microplates were left in the cell culture incubator for 3˜4 h before subjected to solubilization and determination of formazan at A570 in a microplate reader (BioTek ELX808iu). […] Therefore, these compounds might hold a broad utility in the treatment of a large variety of human malignancies.

For assay [9], the system named is lung cancer cell line NCI-H23. The experiment in a line: Minimal effective concentration that elicits polyploidy, NCI-H23. As to conditions: Homo sapiens, read-out: MECP: Minimal effective concentration that elicits polyploidy. Format: cell-based.
The subject of assay [10] is lung cancer cell line NCI-H460. The experiment in a line: MTT assay of cellular proliferation, NCI-H460. As to conditions: Homo sapiens, read-out: EC50: Concentration that inhibits 50% of proliferation. Format: cell-based. The method, then:
as §1, §3

In assay [11] the test system is lung cancer cell line NCI-H2170. Description: MTT assay of cellular proliferation, NCI-H2170. Format: cell-based. As to conditions: Homo sapiens, read-out: EC50: Concentration that inhibits 50% of proliferation. The method, then: as §1, §3

For the molecule `COC(=O)c1cc(Oc2ncccc2-c2ccncc2)cc(C(=O)OC)c1` [Compound 1, Dimethyl 5-([3,4′-bipyridin]-2-yloxy)isophthalate], the results for the minimal effective concentration (with RPEMYC^H2B-GFP cells; in [9]) were 1 µM and 0.001 to 1 µM, respectively. In assay [1], the “anchorage-independent growth in soft agar” value was “Suppress the Anchorage-independent Growth; also recorded: effectively suppressed the anchorage-independent growth”. Further, the entries for the “MECP: Minimal effective concentration that elicits polyploidy” value in assay [2], in [6] and in assay [7] were “A (A: 1 nM < conc. ≤ 1 μM)”, “B (B: 1 μM < conc. ≤ 10 μM)” and “A (A: 1 nM < conc. ≤ 1 μM)”, respectively. Also, the EC50 is 0.001 to 1 µM in assay [3]; 0.001 to 1 µM in [4]; 0.001 to 1 µM in [5]; 10 to 30 µM in assay [8]; 10 to 30 µM in assay [10]; 0.001 to 1 µM in assay [11].

With `COC(=O)c1cc(Oc2ncccc2-c2ccnc(N)n2)cc(C(=O)OC)c1` [Compound 21, dimethyl 5-((3-(2-aminopyrimidin-4-yl)pyridin-2-yl)oxy)isophthalate], the values for the minimal effective concentration (in the assay on RPEMYC^H2B-GFP cells; in [9]) were 1 µM and 0.001 to 1 µM, respectively. Also, the “anchorage-independent growth in soft agar” value in [1] is recorded as “Suppress the Anchorage-independent Growth; also recorded: effectively suppressed the anchorage-independent growth”. Further, the “MECP: Minimal effective concentration that elicits polyploidy” value in [2] is on record as “B (B: 1 μM < conc. ≤ 10 μM)”; in [6], “B (B: 1 μM < conc. ≤ 10 μM)”; in [7] it was “A (A: 1 nM < conc. ≤ 1 μM)”. For the same molecule, the EC50 in [3] is 0.001 to 1 µM; in assay [4] it was 0.001 to 1 µM; in assay [5], 0.001 to 1 µM; in assay [8] it was 1 to 10 µM; in [10], 10 to 30 µM; in [11], 0.001 to 1 µM.

As to `COC(=O)c1cc(OC)cc(Oc2ncccc2-c2ccncc2)c1` [Compound 2, Methyl 3-([3,4′-bipyridin]-2-yloxy)-5-methoxybenzoate], the results for the minimal effective concentration (with RPEMYC^H2B-GFP cells; in [9]) were 1 µM and 0.001 to 1 µM, respectively. In addition, the “MECP: Minimal effective concentration that elicits polyploidy” value in assay [2] was “A (A: 1 nM < conc. ≤ 1 μM)”; in assay [6], “B (B: 1 μM < conc. ≤ 10 μM)”; in assay [7] it was “A (A: 1 nM < conc. ≤ 1 μM)”. Also, the EC50 in assay [3] lay in the range of 0.001 to 1 µM; in assay [4] it was 0.001 to 1 µM; in assay [5], 0.001 to 1 µM; in assay [8] it was 0.001 to 1 µM; in assay [10], 10 to 30 µM; in [11], 0.001 to 1 µM.

Regarding `COC(=O)c1cc(OC)cc(Oc2ncccc2-c2ccnc(N)n2)c1` [Compound 23, Methyl 3-((3-(2-aminopyrimidin-4-yl)pyridin-2-yl)oxy)-5-methoxybenzoate], the minimal effective concentration was 1 µM in the assay with RPEMYC^H2B-GFP cells and 0.001 to 1 µM in assay [9]. The figures for the “MECP: Minimal effective concentration that elicits polyploidy” value in assay [2], in assay [6] and in [7] were “A (A: 1 nM < conc. ≤ 1 μM)”, “B (B: 1 μM < conc. ≤ 10 μM)” and “A (A: 1 nM < conc. ≤ 1 μM)”, respectively. In addition, the EC50 in assay [3] was in the range of 0.001 to 1 µM; in [4] it was 1 to 10 µM; in [5] it was 0.001 to 1 µM; in assay [8] it was 0.001 to 1 µM; in assay [10] it was 10 to 30 µM; in assay [11] it was 0.001 to 1 µM.
